Earlier results on two molecules are cited in publication PMC8781256, “The Influence of Fed State Lipolysis Inhibition on the Intraluminal Behaviour and Absorption of Fenofibrate from a Lipid-Based Formulation” (Pharmaceutics, 2022).

Series [1] has as its system human gastric lipase (HGL). Details: method as in PMID 11408251. As to conditions: after intake of solid and liquid meals.
Series [2] deals with human pancreatic lipase (HPL). More on the design: method as in PMID 11408251. As to conditions: after intake of solid and liquid meals.
On the set-up of series [3]: method as in PMID 8626884. The settings on record: acts locally in the GI tract.

The log P is a log measure of how a compound divides between an organic and an aqueous phase. As to `CC(C)OC(=O)C(C)(C)Oc1ccc(C(=O)c2ccc(Cl)cc2)cc1` [fenofibrate], the “log P” value is on record as 5.21.
Regarding `CCCCCCCCCCC[C@@H](C[C@@H]1OC(=O)[C@H]1CCCCCC)OC(=O)[C@H](CC(C)C)NC=O` [orlistat, tetrahydrolipstatin], the HGL enzyme inhibition in series [1] is reported as 46.6–91.4%. Besides, in series [2], the HPL enzyme inhibition is reported as 51.2–82.6%. Further, in series [3], the systemic uptake entry is listed as “negligible”.
